Where a SMILES comes first, the peptide text is derived from it.
Test: Acid-stability at pH 1.7 (percent recovered by UHPLC/UV)
Format: physicochemical
Settings: water pH 1.7, room temperature (about 22° C.)
Method: Acid-stability measurements were taken for samples of aspartame, SGMAs, and a combination of SGMAs with the stabilizer. […] Acid-stability was measured in water having a pH of 1.7. The concentration of the aspartame or the SGMAs in the samples during the testing was 0.1 to 10 wt %. The samples were stored at room temperature (nominally about 22° C.) and samples were taken periodically. The concentration of the aspartame, SGMAs, MCQAs and DCQAs, as the case may be, was measured by UHPLC/UV then divided by the original concentration to determine a percent recovered.
FIG. 1 illustrates the results for three samples—one had 3000 ppm (0.3 wt %) aspartame, another had 5 wt % SGMAs, and the third had 5 wt % each of the SGMAs and the stabilizer. Aspartame has limited solubility, but 3000 ppm is on par with concentrations of throw syrups used to make some diet carbonated soft drinks that have about 500 ppm of aspartame. […] After 14 days of storage, the concentration of aspartame was about 78% of the initial concentration; stated another way, about 22% of the aspartame was degraded. In the same 14 days, the concentration of SGMAs in the SGMA-only sample was about 67% of the initial concentration, a degradation of about 33%. That means the SGMA degradation was 50% higher than the aspartame degradation (33% vs 22%).

degradation after 14 days of storage: about 22%
concentration as percent of the initial concentration (percent recovered) after 14 days of storage (3000 ppm aspartame, 5 wt % SGMAs, or 5 wt % each SGMAs and stabilizer): about 78%
SMILES: COC(=O)[C@H](Cc1ccccc1)NC(=O)[C@@H](N)CC(=O)O [aspartame] (H-Asp-Phe-OMe)

Reference: patent US11944112B2, “Stabilized steviol glycoside malonic acid esters” (CARGILL, INCORPORATED, priority 2020, dated 2024)
